In patent publication US10238641B2, “Materials and methods for diagnosis, prevention and/or treatment of stress disorders and conditions associated with A-beta peptide aggregation” (The United States of America as represented by the …, priority 2008, dated 2019):

Test system: nAChRs
Type: cell-based, rat

CN1CCCC1c1cccnc1 (stereo not shown) [nicotine, reference compound] was tested, and the “reversal by α-Bgt of the beneficial actions against Aβ toxicity” value was “able to reverse the beneficial actions of nicotine”.
